Here are results for one molecule from ChEMBL document CHEMBL2311467, “Microwave-assisted synthesis of pyrimido[4,5-b][1,6]naphthyridin-4(3H)-ones with potential antitumor activity” (Eur J Med Chem, 2013).

This experiment has as its target Mineralocorticoid receptor (Homo sapiens, UniProt P08235). Description: Antagonist activity at mineralocorticoid receptor (unknown origin).

Sequence of Mineralocorticoid receptor (P08235 whole entry): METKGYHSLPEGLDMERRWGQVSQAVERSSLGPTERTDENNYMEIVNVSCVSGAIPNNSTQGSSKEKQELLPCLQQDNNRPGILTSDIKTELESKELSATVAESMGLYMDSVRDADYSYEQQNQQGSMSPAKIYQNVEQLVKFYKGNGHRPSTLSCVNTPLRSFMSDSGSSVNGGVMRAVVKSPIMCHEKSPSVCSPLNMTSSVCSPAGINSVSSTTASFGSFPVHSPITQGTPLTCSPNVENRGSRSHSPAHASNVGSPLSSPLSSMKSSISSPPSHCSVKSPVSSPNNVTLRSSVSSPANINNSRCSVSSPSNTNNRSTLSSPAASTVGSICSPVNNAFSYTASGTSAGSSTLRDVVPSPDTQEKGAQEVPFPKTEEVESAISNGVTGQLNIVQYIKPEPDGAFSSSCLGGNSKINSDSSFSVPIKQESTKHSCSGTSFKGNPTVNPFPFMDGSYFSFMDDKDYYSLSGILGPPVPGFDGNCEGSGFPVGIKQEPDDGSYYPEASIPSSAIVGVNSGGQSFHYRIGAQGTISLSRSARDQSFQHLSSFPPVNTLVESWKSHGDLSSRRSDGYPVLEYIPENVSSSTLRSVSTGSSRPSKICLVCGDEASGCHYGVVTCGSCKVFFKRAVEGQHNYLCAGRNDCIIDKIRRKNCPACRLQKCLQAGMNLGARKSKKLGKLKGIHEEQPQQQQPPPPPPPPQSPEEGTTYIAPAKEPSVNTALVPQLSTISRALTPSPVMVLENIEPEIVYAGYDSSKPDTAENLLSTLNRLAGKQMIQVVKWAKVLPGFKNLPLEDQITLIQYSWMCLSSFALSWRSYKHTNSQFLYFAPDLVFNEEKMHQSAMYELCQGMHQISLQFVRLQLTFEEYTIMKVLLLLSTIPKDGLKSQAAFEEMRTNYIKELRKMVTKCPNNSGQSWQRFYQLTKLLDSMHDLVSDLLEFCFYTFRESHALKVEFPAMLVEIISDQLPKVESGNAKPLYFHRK

Regarding `CCOc1ncc(C)c2c1[C@H](c1ccc(C#N)cc1OC)C(C(N)=O)=C(C)N2` [FINERENONE], the midpoint of inhibition, the IC50, lay at 0.018 µM.

A word on the IC50: it is the midpoint of a concentration-inhibition curve. A low value points to inhibition by little substance.
